This assay deals with T1, human CXCR3 (Homo sapiens, UniProt P49682).
T1 construct: expressed in transfected cells; host or cells: CHO cells (membrane preparation)
T1 sequence (P49682 1-368): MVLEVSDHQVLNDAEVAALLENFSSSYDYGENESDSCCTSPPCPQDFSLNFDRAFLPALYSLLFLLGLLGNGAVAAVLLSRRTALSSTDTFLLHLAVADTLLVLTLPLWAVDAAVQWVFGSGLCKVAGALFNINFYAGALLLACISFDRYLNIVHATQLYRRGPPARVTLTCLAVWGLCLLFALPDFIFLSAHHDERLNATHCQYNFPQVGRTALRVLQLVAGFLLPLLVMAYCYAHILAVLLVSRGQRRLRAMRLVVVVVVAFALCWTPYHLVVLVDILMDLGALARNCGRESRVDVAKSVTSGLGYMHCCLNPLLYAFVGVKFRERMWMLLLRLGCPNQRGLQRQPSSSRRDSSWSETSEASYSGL
The assay is described as follows: [35S]GTPγS exchange assay, CXCR3 receptor inhibition (hI-TAC-induced GTPγS-binding). Type of assay: biochemical. Particulars: -log IC50 (molar) inhibiting 50% of specific I-TAC-induced GTPγS-binding, membranes of human CXCR3-transfected CHO cells; for IC50: read-out: pIC50 (converted). As to the method:
CXCR3 Receptor Inhibition was Examined in a [^35S]GTPγS Exchange Assay
The exchange of guanosine 5′-[^35S]triphosphate was measured on membranes of human CXCR3-transfected CHO cells. [^35S]GTPγS exchange assays were performed in 96-well plates with 10 μg of membrane protein/well using basic flashplates (Perkin Elmer). Compounds were dissolved in DMSO and diluted with incubation buffer to yield required concentrations with 9% DMSO. Incubation buffer is composed of 20 mM HEPES, 100 mM NaCl, 3 μM GDP and 1 mM MgCl2, pH 7.4. […] Compound, membranes, hI-TAC (interferon-inducible T-cell alpha chemoattractant) and [^35S]GTPγS were added in a total volume of 200 μl. First, 20 μl of the appropriate compound dilution and 140 μl membranes from CXCR3-CHO cells were dissolved in membrane incubation buffer and pre-incubated for 30 minutes at 30° C. Then, 20 μl of hI-TAC dissolved at 30 nM in incubation buffer was added to the membranes and the mixture containing 1% of DMSO was incubated for another 30 minutes at 30° C. […] After 1 minute shaking and 30 minutes incubation at 30° C., flashplates were centrifuged for 5 minutes at 2500 rpm at room temperature. Flashplate bound radioactivity was determined by liquid scintillation counting. Basal GTPγS-binding was measured in 8 wells with membranes incubated in the same volume with 1% DMSO, without I-TAC. Maximal GTPγS-binding was measured in 8 wells with membranes incubated with 1% DMSO and 3 nM I-TAC. […] IC50 values were calculated using non-linear regression in Graphpad Prism.

Broadly, the pIC50 is the IC50 on a negative log10 scale, so that one unit is a factor of ten. Low readings indicate a high IC50, high ones a low IC50.

As to `CC(C)N1C(=O)CCC(c2ccccc2)(C2CCN(Cc3ccc(Br)cc3)CC2)C1=O` (centres unmarked) [Compound 127], the pIC50 is listed as 5.3.

On to `CCCN1C(=O)CCC(c2ccccc2)(C2CCN(Cc3ccc(Br)cc3)CC2)C1=O` (centres unmarked) [Compound 128], for which the IC50 is 3.98 µM.

On to `COCCN1C(=O)CCC(c2ccccc2)(C2CCN(Cc3ccc(Br)cc3)CC2)C1=O` (centres unmarked) [Compound 129], for which the negative-log IC50 (pIC50) came to 5.7.

For `COC(=O)CCN1C(=O)CCC(c2ccccc2)(C2CCN(Cc3ccc(Br)cc3)CC2)C1=O` (centres unmarked) [Compound 130], the IC50 is 3.98 µM.

As for `CN1C(=O)CCC(c2ccccc2)(C2CCN(Cc3ccc(C(F)(F)F)cc3)CC2)C1=O` (centres unmarked) [Compound 131], the IC50 is 3.98 µM.

In the case of `COC(=O)CCN1C(=O)CCC(c2ccccc2)(C2CCN(Cc3ccc(C(F)(F)F)cc3)CC2)C1=O` (centres unmarked) [Compound 132], the IC50 is 0.631 µM.

On to `O=C1CCC(c2ccccc2)(C2CCN(Cc3ccc(F)cc3)CC2)CN1` (centres unmarked) [Compound 133], for which the IC50 was 1.58 µM.

With `O=C1CCC(c2ccc(F)cc2)(C2CCN(Cc3ccc(F)c(Cl)c3)CC2)CN1` (centres unmarked) [Compound 134], the IC50 was 3.98 µM.

Take `O=C1CCC(c2ccccc2)(C2CCN(Cc3ccc(Cl)cc3)CC2)CN1` (centres unmarked) [Compound 135]: the IC50 is 1 µM.

On to `O=C1CCC(c2ccc(F)cc2)(C2CCN(Cc3ccc(Cl)cc3)CC2)CN1` (centres unmarked) [Compound 136], for which the IC50 is 0.794 µM.

Consider `O=C1CCC(c2ccccc2)(C2CCN(Cc3ccc(Cl)cc3Cl)CC2)CN1` (centres unmarked) [Compound 137], for which the IC50 is 0.631 µM.

As to `O=C1CCC(c2ccc(F)cc2)(C2CCN(Cc3ccc(Cl)cc3Cl)CC2)CN1` (centres unmarked) [Compound 138], the IC50 was 1.58 µM.

As to `O=C1CCC(c2ccc(F)cc2)(C2CCN(Cc3ccc(Cl)c(F)c3)CC2)CN1` (centres unmarked) [Compound 139], the IC50 is 1.58 µM.

As to `O=C1CCC(c2ccccc2)(C2CCN(Cc3ccc(Cl)c(Cl)c3)CC2)CN1` (centres unmarked) [Compound 140], the IC50 is 0.794 µM.

In the case of `O=C1CCC(c2ccc(F)cc2)(C2CCN(Cc3ccc(Cl)c(Cl)c3)CC2)CN1` (centres unmarked) [Compound 141], the IC50 is 1.58 µM.

Take `O=C1NCCCC1(c1ccccc1)C1CCN(Cc2ccc(Br)cc2)CC1` (centres unmarked) [Compound 142]: the pIC50 came to 5.8.

Turning to `O=C1CCC(c2ccc(F)cc2)(C2CCN(Cc3ccc(Br)cc3)CC2)CN1` (centres unmarked) [Compound 143], the IC50 is 0.631 µM.

With `CC(c1ccc(Br)cc1)N1CCC(C2(c3ccc(F)cc3)CCC(=O)NC2)CC1` (centres unmarked) [Compound 144], the IC50 was 0.631 µM.

For `Cc1cc(CN2CCC(C3(c4ccc(F)cc4)CCC(=O)NC3)CC2)ccc1Br` (centres unmarked) [Compound 145], the IC50 is 0.794 µM.

`O=C1CCC(c2ccccc2)(C2CCN(Cc3ccc(C(F)(F)F)cc3)CC2)CN1` (centres unmarked) [Compound 146]: the IC50 is 2.51 µM.

Turning to `O=C1CCC(c2ccc(F)cc2)(C2CCN(Cc3ccc(OC(F)F)cc3)CC2)CN1` (centres unmarked) [Compound 147], the IC50 was 3.98 µM.

Regarding `O=C1CCC(c2ccccc2)(C2CCN(Cc3ccc(OCc4ccc(Cl)cc4)cc3)CC2)CN1` (centres unmarked) [Compound 148], the IC50 is 6.31 µM.

Take `O=C1CCC(c2cccc(Cl)c2)(C2CCN(Cc3ccc4ccccc4c3)CC2)C(=O)N1` (centres unmarked) [Compound 149]: the IC50 is 5.01 µM.

In the case of `O=C1CCC(c2ccc(F)cc2)(C2CCN(Cc3ccc4ccccc4c3)CC2)C(=O)N1` (centres unmarked) [Compound 150], the IC50 is 1 µM.

For `O=C1CCC(c2ccccc2)(C2CCN(Cc3ccc(Cl)s3)CC2)C(=O)N1` (centres unmarked) [Compound 151], the IC50 is 3.16 µM.

As to `O=C1CCC(c2cccc(Cl)c2)(C2CCN(Cc3ccc(Cl)s3)CC2)C(=O)N1` (centres unmarked) [Compound 152], the IC50 was 0.794 µM.

In the case of `O=C1CCC(c2ccc(F)cc2)(C2CCN(Cc3ccc(Cl)s3)CC2)C(=O)N1` (centres unmarked) [Compound 153], the IC50 is 1.26 µM.

Regarding `O=C1CCC(c2ccccc2)(C2CCN(Cc3ccc(Cl)s3)CC2)C(=O)N1` (centres unmarked) [Compound 154], the IC50 is 2.51 µM.

Take `O=C1CCC(c2ccccc2)(C2CCN(Cc3cc(F)c(F)cc3F)CC2)C(=O)N1` (centres unmarked) [Compound 155]: the IC50 is 2.51 µM.

Consider `O=C1CCC(c2ccc(F)cc2)(C2CCN(Cc3cc(F)c(F)cc3F)CC2)C(=O)N1` (centres unmarked) [Compound 156], for which the IC50 was 0.794 µM.

Regarding `Cc1cc(C)c(CN2CCC(C3(c4ccccc4)CCC(=O)NC3=O)CC2)c(C)c1` (centres unmarked) [Compound 157], the IC50 was 3.16 µM.

In the case of `O=C1CCC(c2ccccc2)(C2CCN(Cc3cc4cc(Br)ccc4o3)CC2)C(=O)N1` (centres unmarked) [Compound 158], the IC50 was 1.26 µM.

`O=C1CCC(c2cccc(C(=O)O)c2)(C2CCN(Cc3cc4cc(Br)ccc4o3)CC2)C(=O)N1` (centres unmarked) [Compound 160]: the IC50 was 0.316 µM.

On to `O=C1CCC(c2ccc(F)cc2)(C2CCN(Cc3cc4cc(Br)ccc4o3)CC2)C(=O)N1` (centres unmarked) [Compound 161], for which the IC50 was 3.16 µM.

In the case of `O=C1CCC(c2ccc(F)cc2)(C2CCN(Cc3ccc4nonc4c3)CC2)C(=O)N1` (centres unmarked) [Compound 163], the IC50 was 3.98 µM.

On to `CC(c1ccc(Br)cc1)N1CCC(C2(c3cccc(Cl)c3)CCC(=O)NC2=O)CC1` (centres unmarked) [Compound 164], for which the IC50 is 1 µM.

Regarding `CC(c1ccc(Br)cc1)N1CCC(C2(c3cccc(C(=O)O)c3)CCC(=O)NC2=O)CC1` (centres unmarked) [Compound 165], the IC50 was 0.794 µM.

As to `O=C1CCC(c2ccncc2)(C2CCN(Cc3ccc(Cl)c(Cl)c3)CC2)C(=O)N1` (centres unmarked) [Compound 169], the IC50 was 1 µM.

For `CC(c1ccc(Br)cc1)N1CCC(C2(c3ccncc3)CCC(=O)NC2=O)CC1` (centres unmarked) [Compound 171], the IC50 was 1.58 µM.

Take `O=C1CCC(c2ccncc2)(C2CCN(Cc3ccc(-c4ccccc4)cc3)CC2)C(=O)N1` (centres unmarked) [Compound 174]: the IC50 was 5.01 µM.

As for `O=C1CCC(c2cccnc2)(C2CCN(Cc3ccc(F)c(F)c3F)CC2)C(=O)N1` (centres unmarked) [Compound 175], the IC50 is 1 µM.

As to `O=C1CCC(c2cccnc2)(C2CCN(Cc3ccc(Cl)c(F)c3)CC2)C(=O)N1` (centres unmarked) [Compound 176], the IC50 is 2 µM.

On to `O=C1CCC(c2cccnc2)(C2CCN(Cc3ccc(Cl)c(Cl)c3)CC2)C(=O)N1` (centres unmarked) [Compound 177], for which the IC50 is 1 µM.

For the compound `O=C1CCC(c2cccnc2)(C2CCN(Cc3ccc(Br)cc3)CC2)C(=O)N1` (centres unmarked) [Compound 178], the negative logarithm of the IC50 (pIC50) was 6.0.

Turning to `O=C1CCC(c2cccnc2)(C2CCN(Cc3ccc(Br)cc3F)CC2)C(=O)N1` (centres unmarked) [Compound 179], the IC50 is 2 µM.

`O=C1CCC(c2cccnc2)(C2CCN(Cc3ccc(OC(F)(F)F)cc3)CC2)C(=O)N1` (centres unmarked) [Compound 180]: the IC50 was 2.51 µM.

`O=C1CCC(c2ccncc2)(C2CCN(Cc3cc4cc(Br)ccc4o3)CC2)C(=O)N1` (centres unmarked) [Compound 183]: the IC50 is 1.26 µM.

Take `O=C1CCC(c2cccnc2)(C2CCN(Cc3cc4cc(Br)ccc4o3)CC2)C(=O)N1` (centres unmarked) [Compound 184]: the IC50 is 1.58 µM.

With `O=C1CCC(c2ccc([N+](=O)[O-])cc2)(C2CCN(Cc3ccccc3[N+](=O)[O-])CC2)C(=O)N1` (centres unmarked) [Compound 186], the IC50 is > 10 µM.

`O=C1CCC(c2ccccc2)(C2CCN(Cc3ccc(Cl)cc3)CC2)C(=O)N1Cc1ccc(Cl)cc1` (centres unmarked) [Compound 189]: the IC50 is 2 µM.

For the compound `O=C1CCC(c2ccc(C(=O)O)cc2)(C2CCN(Cc3ccc(F)c(Cl)c3)CC2)C(=O)N1` (centres unmarked) [Compound 190], the IC50 is 6.31 µM.

`O=C1CCC(c2ccc(C(=O)O)cc2)(C2CCN(Cc3ccc(Cl)cc3)CC2)C(=O)N1` (centres unmarked) [Compound 191]: the IC50 was 5.01 µM.

Take `O=C1CCC(c2ccc(F)c(F)c2)(C2CCN(Cc3ccc(Cl)c(F)c3)CC2)C(=O)N1` (centres unmarked) [Compound 192]: the IC50 is 2.51 µM.

On to `O=C1CCC(c2ccc(C(=O)O)cc2)(C2CCN(Cc3ccc(Br)cc3)CC2)C(=O)N1` (centres unmarked) [Compound 193], for which the pIC50 came to 5.3.

Regarding `Cc1cc(CN2CCC(C3(c4ccc(F)cc4F)CCC(=O)NC3=O)CC2)ccc1Br` (centres unmarked) [Compound 196], the IC50 is 0.316 µM.

Turning to `O=C1CCC(c2ccc(F)cc2F)(C2CCN(Cc3ccc(Br)c(F)c3)CC2)C(=O)N1` (centres unmarked) [Compound 197], the IC50 is 0.398 µM.

For `O=C1CCC(c2ccc(F)cc2F)(C2CCN(Cc3ccc(Br)cc3F)CC2)C(=O)N1` (centres unmarked) [Compound 198], the IC50 was 0.251 µM.

With `O=C1CCC(c2ccc(F)cc2F)(C2CCN(Cc3ccc(Cl)cc3)CC2)C(=O)N1` (centres unmarked) [Compound 199], the IC50 is 0.251 µM.

In the case of `O=C1CCC(c2ccc(F)cc2F)(C2CCN(Cc3ccc(Cl)cc3Cl)CC2)C(=O)N1` (centres unmarked) [Compound 200], the IC50 was 0.631 µM.

Values taken from US20090030039A1, “Piperidine Derivatives as Cxcr3 Receptor Antagonists” (priority 2006, published 2009).
